Patent US20150057243A1, “Compositions and Methods for the Inhibition of Methyltransferases” (Northeastern University, priority 2012, published 2015)

Key:
TPMT [1] = biological target: T1, TPMT (Homo sapiens, UniProt P51580); assay: specificity assay with AdoVin (time-dependent UV absorbance change); assay type: biochemical; settings: FIG. 34
T1 construct: made in house
T1 sequence (P51580 1-245): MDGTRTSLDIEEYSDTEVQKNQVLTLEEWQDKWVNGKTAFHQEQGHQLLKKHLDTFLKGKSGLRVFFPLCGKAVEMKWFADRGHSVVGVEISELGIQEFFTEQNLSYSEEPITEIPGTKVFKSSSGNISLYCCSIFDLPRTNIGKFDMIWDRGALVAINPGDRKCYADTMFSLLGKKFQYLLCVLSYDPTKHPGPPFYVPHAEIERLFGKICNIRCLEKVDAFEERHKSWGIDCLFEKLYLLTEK
Source text: In comparison, the concentration of 4-methoxybenzylthiol decreased in the presence of AdoVin, indicating a reaction with AdoVin.

TPMT [2] = biological target: T1, TPMT; settings: data referred to for comparison; cited from earlier work
[3] = biological target: T2, human betaine-homocysteine S-methyltransferase (Homo sapiens, UniProt Q93088); settings: cited from earlier work
T2 sequence (Q93088 1-406): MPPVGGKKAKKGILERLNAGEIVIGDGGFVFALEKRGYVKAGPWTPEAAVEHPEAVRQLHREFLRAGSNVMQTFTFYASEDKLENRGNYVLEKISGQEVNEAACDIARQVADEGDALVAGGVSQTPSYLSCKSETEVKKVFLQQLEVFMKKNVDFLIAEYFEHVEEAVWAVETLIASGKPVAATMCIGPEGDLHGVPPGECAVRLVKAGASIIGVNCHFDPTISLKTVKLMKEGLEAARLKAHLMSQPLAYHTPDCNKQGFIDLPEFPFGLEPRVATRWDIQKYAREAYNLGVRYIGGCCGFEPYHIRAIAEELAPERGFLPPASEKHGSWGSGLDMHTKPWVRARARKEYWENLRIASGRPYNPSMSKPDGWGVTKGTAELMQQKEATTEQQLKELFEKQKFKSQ

trypanosomes = settings: Goldberg 1997; cited from earlier work
Leishmania promastigotes = settings: Lawrence 1993, Avila 1993; cited from earlier work
[4] = system: Candida albicans and various Aspergillus species; settings: cited from earlier work
mammalian cells = settings: cited from earlier work
cells = settings: cited from earlier work
[5] = biological target: T3, histidine-tagged TPMT enzyme (Homo sapiens, UniProt P51580); assay: AdoVin-TNB binding assay, histidine-tagged TPMT isolated using nickel spin column; settings: XIC (FIG. 30 top panel)
T3 construct: made in house
T3 sequence (P51580 1-245): T1 sequence (P51580 1-245)
Method: The histidine-tagged TPMT enzyme was isolated using nickel spin column. 610.0 m/z at 8.6 min is for the TNB-AdoVin adduct (confirmed by tandem mass analysis), 411.0 m/z at 1.6 min is for AdoVin, and 162.0 m/z at 6.2 min is for vinthionine. […] The peak around 1.58 minutes with m/z 411.0 corresponds to AdoVin, while the peak around 6.2 min with m/z 162.0 corresponds to vinthionine.
Recombinant histidine-tagged human thiopurine methyltransferase (TPMT, EC 2.1.1.67) and S-adenosylhomocysteine nucleosidase (MTAN, EC 3.2.2.9) were purified as described. See Cannon, L. M. et al. Anal. Biochem. 2002, 308, 35/-363; Lee, J. E. et al. Acta Crystallogr. D. Biol. Crystallogr. 2001, 57, 150-152. The recombinant E. coli homocysteine S-methyltransferase (HMT, EC 2.1.1.10) was a gift from Steven G Clark (UCLA Department of Chemistry and Biochemistry, Los Angeles, Calif.), and purified as described. See Vinci, C. R.; Clarke, S. G. J. Biol. Chem. 2010, 285(27), 20526-20531; Vinci, C. R.; Clarke, S. G. J. Biol. Chem. 2007, 282(12), 8604-8612.

SMILES: O=[N+]([O-])c1ccc(O)cc1 [4-nitrophenol]
- time-dependent UV absorbance / concentration change in the presence of AdoVin (TPMT [1]): No change was observed
- reaction with AdoMet (the natural substrate for TPMT) (TPMT [2]): does not react

SMILES: C=CSCCC(N)C(=O)O (racemic) [DL-S-Vinylhomocysteine]
- inhibition of human betaine-homocysteine S-methyltransferase [3]: not to be an inhibitor

SMILES: C[S+](CC[C@H](N)C(=O)[O-])C[C@H]1O[C@@H](n2cnc3c(N)ncnc32)[C@H](O)[C@@H]1O (stereo partly drawn) [AdoMet, S-Adenosyl-methionine]
- active transport into trypanosomes (trypanosomes): actively transported
- active transport into Leishmania promastigotes (Leishmania promastigotes): actively transported
- active transport into Candida albicans and various Aspergillus species [4]: actively transported
- active transport into mammalian cells (mammalian cells): not actively transported

SMILES: COc1ccc(CS)cc1 [4-methoxybenzylthiol]
- time-dependent UV absorbance / concentration change in the presence of AdoVin (TPMT [1]): decreased
- reaction with AdoMet (the natural substrate for TPMT) (TPMT [2]): reacts

SMILES: C=CSCC[C@H](N)C(=O)O [L-S-Vinylhomocysteine]
- active transport into cells (cells): actively transported into cells

SMILES: C=CSCC[C@H](N)C(=O)O [vinthionine, S-Demethyl-5-vinyl-L-methionine]
- cell permeability (cells): cell permeable
- presence in the enzyme complex [5]: absence
